Source: ChEMBL document CHEMBL1127125, “Synthesis and testing of substituted phenylthioribose analogs against Klebsiella pneumoniae” (Bioorg Med Chem Lett, 1993)
Converted amounts (≈) assume the structure as drawn.

What was measured:
Klebsiella pneumoniae [1] = experiment: Compound was tested for its ability to inhibit the growth of a clinical strain of Klebsiella pneumoniae at 0.01 ng/mL; assay type: functional, organism-based
Klebsiella pneumoniae [2] = experiment: Minimum inhibitory concentration of compound for its inhibitory activity against Klebsiella pneumoniae growth at 2.60 ug/mL; assay type: functional
Klebsiella pneumoniae [3] = experiment: Concentration required to inhibit the growth of a clinical strain of Klebsiella pneumoniae by 50%; assay type: functional, organism-based
Klebsiella pneumoniae [4] = experiment: Minimum inhibitory concentration of compound for its inhibitory activity against Klebsiella pneumoniae growth at 0.002 ug/mL; assay type: functional
Klebsiella pneumoniae [5] = experiment: Minimum inhibitory concentration of compound for its inhibitory activity against Klebsiella pneumoniae growth at 20.7 ug/mL; assay type: functional
Klebsiella pneumoniae [6] = experiment: Compound was tested for its ability to inhibit the growth of a clinical strain of Klebsiella pneumoniae; assay type: functional, organism-based
[7] = Compound was tested for its ability to inhibit the growth of a clinical strain Ochromonas malhamensis; assay type: functional
Plasmodium falciparum = experiment: Inhibition of Plasmodium falciparum; assay type: functional, organism-based
Klebsiella pneumoniae [8] = experiment: Minimum inhibitory concentration of compound for its inhibitory activity against Klebsiella pneumoniae growth at 2.4 ug/mL; assay type: functional

OC1O[C@H](CSc2ccc(F)cc2)[C@@H](O)[C@H]1O (stereo partly specified)
IC50 (Klebsiella pneumoniae [1]): 0.05 nM | MIC (Klebsiella pneumoniae [2]): 10 µM (≈ 2.6 µg/mL)

OC1O[C@H](CSc2ccc(C(F)(F)F)cc2)[C@@H](O)[C@H]1O (stereo partly specified)
IC50 (Klebsiella pneumoniae [3]): 0.04 µM

OC1O[C@H](CSc2ccc(I)cc2)[C@@H](O)[C@H]1O (stereo partly specified)
MIC (Klebsiella pneumoniae [4]): 0.005 µM (≈ 0.00184 µg/mL)

OC1O[C@H](CSc2ccc(Cl)cc2)[C@@H](O)[C@H]1O (stereo partly specified)
MIC (Klebsiella pneumoniae [5]): 75 µM (≈ 20.8 µg/mL) | IC50 (Klebsiella pneumoniae [1]): 500 nM

CCSC[C@H]1OC(O)[C@H](O)[C@@H]1O (stereo partly specified)
IC50 (Klebsiella pneumoniae [6]): ~15000 µM | IC50 [7]: ~75 µM | IC50 (Plasmodium falciparum): ~300 µM

OC1O[C@H](CSc2ccc(Br)cc2)[C@@H](O)[C@H]1O (stereo partly specified)
MIC (Klebsiella pneumoniae [8]): 7.5 µM (≈ 2.41 µg/mL) | IC50 (Klebsiella pneumoniae [1]): 375 nM
